Test results as given in ChEMBL document CHEMBL1201862, “PubChem BioAssay data set” (2004).
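48-hour exposure; five concentrations; linearly interpolated endpoints. GI50: concentration for 50% inhibition of growth.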 Active and inactive are the calls of the source. Cut-off read from the data, not from the text of the source: active = GI50 up to about 1.1 µM and inactive = higher.

Assays:
Assay in all cases: NCI anticancer screen, dose series, 48 h
[1] = system: 786-0
[2] = system: A549
[3] = system: SNB-75
[4] = system: RXF 393
[5] = system: NCI-H460
[6] = system: HCC 2998
[7] = system: HT-29
[8] = system: CCRF-CEM
[9] = system: Malme-3M
[10] = system: SF-295
[11] = system: U-251
[12] = system: RPMI-8226
[13] = system: UACC-257
[14] = system: MDA-MB-231
[15] = system: SF-539
[16] = system: OVCAR-8
[17] = system: NCI-H226
[18] = system: CAKI-1
[19] = system: HOP-62
[20] = system: SR
[21] = system: SK-MEL-2
[22] = system: MCF7
[23] = system: COLO 205
[24] = system: PC-3
[25] = system: DU-145
[26] = system: LOX IMVI
[27] = system: BT-549
[28] = system: M14
[29] = system: Hs-578T
[30] = system: SN12C
[31] = system: A498
[32] = system: SNB-19
[33] = system: MDA-N
[34] = system: KM12
[35] = system: HCT-15
[36] = system: HL-60
[37] = system: OVCAR-4
[38] = system: OVCAR-3
[39] = system: SK-OV-3
[40] = system: HOP-92
[41] = system: MDA-MB-435
[42] = system: NCI-H23
[43] = system: SK-MEL-5
[44] = system: NCI/ADR-RES
[45] = system: EKVX
[46] = system: SK-MEL-28
[47] = system: OVCAR-5
[48] = system: K562
[49] = system: IGROV-1
[50] = system: UACC-62
[51] = system: TK-10
[52] = system: SW-620
[53] = system: ACHN
[54] = system: NCI-H522
[55] = system: T47D
[56] = system: UO-31
[57] = system: HCT-116
[58] = system: SF-268
[59] = system: MOLT-4
[60] = system: M19-MEL
[61] = system: KM-20L2
[62] = system: DMS-273
[63] = system: DLD-1
[64] = system: LXFL 529

## Cn1c2cc(Cl)ccc2c2ccc3c(c21)C(=O)C=CC3=O
[1]
  GI50: 18.8 µM (inactive)
[2]
  GI50: > 100 µM (inactive)
[3]
  GI50: > 71 µM (inactive)
[4]
  GI50: 21.1 µM (inactive)
[5]
  GI50: > 100 µM (inactive)
[6]
  GI50: > 100 µM (inactive)
[7]
  GI50: 31.4 µM (inactive)
[8]
  GI50: 3.68 µM (inactive)
[9]
  GI50: 16.5 µM (inactive)
[10]
  GI50: > 100 µM (inactive)
[11]
  GI50: 45.9 µM (inactive)
[12]
  GI50: 5.57 µM (inactive)
[13]
  GI50: 26.4 µM (inactive)
[14]
  GI50: 26.9 µM (inactive)
[15]
  GI50: > 55 µM (inactive)
[16]
  GI50: 28.3 µM (inactive)
[17]
  GI50: > 100 µM (inactive)
[18]
  GI50: 13.5 µM (inactive)
[19]
  GI50: > 100 µM (inactive)
[20]
  GI50: 6.07 µM (inactive)
[21]
  GI50: 33.3 µM (inactive)
[22]
  GI50: 13.8 µM (inactive)
[23]
  GI50: 13.8 µM (inactive)
[24]
  GI50: 25.8 µM (inactive)
[25]
  GI50: > 57 µM (inactive)
[26]
  GI50: 42.5 µM (inactive)
[27]
  GI50: 25.6 µM (inactive)
[28]
  GI50: 23.7 µM (inactive)
[29]
  GI50: 46.9 µM (inactive)
[30]
  GI50: 14 µM (inactive)
[31]
  GI50: 68.7 µM (inactive)
[32]
  GI50: > 100 µM (inactive)
[33]
  GI50: 26.1 µM (inactive)
[34]
  GI50: > 100 µM (inactive)
[35]
  GI50: 22.4 µM
[36]
  GI50: 13.5 µM (inactive)
[37]
  GI50: 20.7 µM (inactive)
[38]
  GI50: 11.7 µM (inactive)
[39]
  GI50: > 100 µM (inactive)
[40]
  GI50: 19 µM (inactive)
[41]
  GI50: 25.4 µM (inactive)
[42]
  GI50: 20 µM (inactive)
[43]
  GI50: 39.8 µM (inactive)
[44]
  GI50: > 52.4 µM (inactive)
[45]
  GI50: > 71.4 µM (inactive)
[46]
  GI50: 25.3 µM (inactive)
[47]
  GI50: 86.5 µM (inactive)
[48]
  GI50: 3.4 µM (inactive)
[49]
  GI50: 28.4 µM (inactive)
[50]
  GI50: 21.5 µM (inactive)
[51]
  GI50: 26.9 µM (inactive)
[52]
  GI50: 4.4 µM (inactive)
[53]
  GI50: 16.8 µM (inactive)
[54]
  GI50: 8.13 µM (inactive)
[55]
  GI50: 14.1 µM (inactive)
[56]
  GI50: 45.7 µM (inactive)
[57]
  GI50: 20.8 µM (inactive)
[58]
  GI50: 38.6 µM (inactive)
[59]
  GI50: 2.75 µM (inactive)

## Nc1nc(Cl)cc(NCC2(CO)CC(Cc3ccccc3)C2)n1 (stereo not drawn)
[1]
  GI50: > 60.8 µM (inactive)
[2]
  GI50: 19.1 µM (inactive)
[3]
  GI50: 28.6 µM (inactive)
[4]
  GI50: 20.4 µM (inactive)
[5]
  GI50: 22.5 µM (inactive)
[6]
  GI50: 30.7 µM (inactive)
[7]
  GI50: 29 µM (inactive)
[8]
  GI50: 29.5 µM (inactive)
[9]
  GI50: 29.4 µM (inactive)
[10]
  GI50: 11.3 µM (inactive)
[11]
  GI50: 27.9 µM (inactive)
[12]
  GI50: 15 µM (inactive)
[13]
  GI50: 31.5 µM (inactive)
[14]
  GI50: 42.3 µM (inactive)
[15]
  GI50: 59.3 µM (inactive)
[16]
  GI50: 42.2 µM (inactive)
[17]
  GI50: 13.2 µM (inactive)
[18]
  GI50: > 73.5 µM (inactive)
[19]
  GI50: > 66.5 µM (inactive)
[20]
  GI50: 9.27 µM (inactive)
[21]
  GI50: 22.3 µM (inactive)
[22]
  GI50: 11.2 µM (inactive)
[23]
  GI50: 29.8 µM (inactive)
[24]
  GI50: 30.6 µM (inactive)
[25]
  GI50: > 53.5 µM (inactive)
[26]
  GI50: 4.37 µM (inactive)
[27]
  GI50: 20.4 µM (inactive)
[28]
  GI50: 16.2 µM (inactive)
[29]
  GI50: 38.7 µM (inactive)
[30]
  GI50: > 92.3 µM (inactive)
[31]
  GI50: 10.1 µM (inactive)
[32]
  GI50: 25.5 µM (inactive)
[33]
  GI50: 25.1 µM (inactive)
[34]
  GI50: 35.1 µM (inactive)
[35]
  GI50: 9.55 µM
[36]
  GI50: 4.71 µM (inactive)
[37]
  GI50: 24.2 µM (inactive)
[38]
  GI50: 51.9 µM (inactive)
[39]
  GI50: 52 µM (inactive)
[40]
  GI50: 36.6 µM (inactive)
[41]
  GI50: 19.4 µM (inactive)
[42]
  GI50: 34.4 µM (inactive)
[43]
  GI50: 0.417 µM (active)
[44]
  GI50: 9.73 µM (inactive)
[45]
  GI50: 3.35 µM (inactive)
[46]
  GI50: 60.4 µM (inactive)
[47]
  GI50: > 58.7 µM (inactive)
[48]
  GI50: 2.92 µM (inactive)
[49]
  GI50: 48.4 µM (inactive)
[50]
  GI50: 27.5 µM (inactive)
[51]
  GI50: 25.6 µM (inactive)
[52]
  GI50: > 65.6 µM (inactive)
[53]
  GI50: 32 µM (inactive)
[54]
  GI50: 36.4 µM (inactive)
[55]
  GI50: 1.34 µM (inactive)
[56]
  GI50: 23.4 µM (inactive)
[57]
  GI50: 5.81 µM (inactive)
[58]
  GI50: 21.6 µM (inactive)
[59]
  GI50: 16.5 µM (inactive)

## Cc1ccc(C(N)=O)cc1/N=N/N(C)C
[60]
  GI50: > 100 µM (inactive)
[61]
  GI50: > 100 µM (inactive)
[1]
  GI50: > 100 µM (inactive)
[2]
  GI50: > 100 µM (inactive)
[5]
  GI50: > 100 µM (inactive)
[6]
  GI50: > 100 µM (inactive)
[7]
  GI50: > 100 µM (inactive)
[10]
  GI50: > 100 µM (inactive)
[11]
  GI50: > 100 µM (inactive)
[13]
  GI50: > 100 µM (inactive)
[16]
  GI50: > 100 µM (inactive)
[18]
  GI50: > 100 µM (inactive)
[19]
  GI50: > 100 µM (inactive)
[21]
  GI50: > 100 µM (inactive)
[23]
  GI50: > 100 µM (inactive)
[62]
  GI50: > 100 µM (inactive)
[26]
  GI50: > 100 µM (inactive)
[28]
  GI50: > 100 µM (inactive)
[30]
  GI50: > 100 µM (inactive)
[32]
  GI50: > 100 µM (inactive)
[34]
  GI50: > 100 µM (inactive)
[35]
  GI50: > 100 µM
[37]
  GI50: > 100 µM (inactive)
[38]
  GI50: > 100 µM (inactive)
[39]
  GI50: > 100 µM (inactive)
[40]
  GI50: > 100 µM (inactive)
[63]
  GI50: > 100 µM (inactive)
[42]
  GI50: > 100 µM (inactive)
[43]
  GI50: > 100 µM (inactive)
[45]
  GI50: > 100 µM (inactive)
[46]
  GI50: > 100 µM (inactive)
[49]
  GI50: > 100 µM (inactive)
[50]
  GI50: > 100 µM (inactive)
[51]
  GI50: > 100 µM (inactive)
[52]
  GI50: > 100 µM (inactive)
[53]
  GI50: > 100 µM (inactive)
[54]
  GI50: > 100 µM (inactive)
[56]
  GI50: > 100 µM (inactive)
[64]
  GI50: > 100 µM (inactive)
[58]
  GI50: > 100 µM (inactive)
